From the supplement of paper PMC10307832

Key:
Experiment in all cases: relative viability (nuclei count vs DMSO), 5 days (fraction); higher = more cells survive
BEN = system: BEN
Outline: (§1)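 Relative viability is defined as nuclei in treated wells over nuclei in vehicle wells. Duplicate plates were run and medians reported. Lung cancer cell lines in 1536-well plates were dosed by pin tool one day after seeding, with one drug or with a fixed anchor-drug dose plus five library-drug doses (not always all listed) in √10 steps, and nuclei were counted after 5 days.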

ChaGo-K-1 = system: ChaGo-K-1
Outline: as §1

HCC-15 = system: HCC-15
Outline: as §1

HCC-78 = system: HCC-78
Outline: as §1

LC-2-ad = system: LC-2-ad
Outline: as §1

LCLC-97TM1 = system: LCLC-97TM1
Outline: as §1

LK-2 = system: LK-2
Outline: as §1

LU99A = system: LU99A
Outline: as §1

LXF-289 = system: LXF-289
Outline: as §1

NCI-H1651 = system: NCI-H1651
Outline: as §1

NCI-H1666 = system: NCI-H1666
Outline: as §1

NCI-H1944 = system: NCI-H1944
Outline: as §1

NCI-H2087 = system: NCI-H2087
Outline: as §1

NCI-H322M = system: NCI-H322M
Outline: as §1

NCI-H358 = system: NCI-H358
Outline: as §1

NCI-H596 = system: NCI-H596
Outline: as §1

NCI-H650 = system: NCI-H650
Outline: as §1

NCI-H661 = system: NCI-H661
Outline: as §1

NCI-H838 = system: NCI-H838
Outline: as §1

PC-3 [JPC-3] = system: PC-3 [JPC-3]
Outline: as §1

SK-MES-1 = system: SK-MES-1
Outline: as §1

UMC-11 = system: UMC-11
Outline: as §1

Work on `Oc1nc(-c2ccc(C(F)(F)F)cc2)nc2c1CSCC2` [XAV939] + CS(=O)(=O)N1CCN(Cc2cc3nc(-c4cccc5[nH]ncc45)nc(N4CCOCC4)c3s2)CC1 [Pictilisib] (partner 1 µM) yielded a relative viability (BEN; first compound 0.08 µM) of 0.579, a relative viability (BEN; first compound 0.253 µM) of 0.472 and a relative viability (BEN; first compound 0.8 µM) of 0.529. The relative viability (ChaGo-K-1; first compound 0.08 µM) was 0.629, the relative viability (ChaGo-K-1; first compound 0.253 µM) was 0.598 and the relative viability (ChaGo-K-1; first compound 0.8 µM) was 0.729. It also gave a relative viability (ChaGo-K-1; first compound 2.53 µM) of 0.648, a relative viability (HCC-15; first compound 0.08 µM) of 0.858 and a relative viability (HCC-15; first compound 0.253 µM) of 0.632. For the same compound, the relative viability (HCC-15; first compound 0.8 µM) was 0.736, the relative viability (HCC-15; first compound 2.53 µM) was 0.755 and the relative viability (HCC-78; first compound 0.08 µM) was 0.216. It also gave a relative viability (HCC-78; first compound 0.253 µM) of 0.206, a relative viability (HCC-78; first compound 0.8 µM) of 0.161 and a relative viability (HCC-78; first compound 2.53 µM) of 0.213. The relative viability (LC-2-ad; first compound 0.08 µM) was 0.5, the relative viability (LC-2-ad; first compound 0.253 µM) was 1.13 and the relative viability (LC-2-ad; first compound 0.8 µM) was 0.407. The relative viability (LC-2-ad; first compound 2.53 µM) was 0.428, the relative viability (LCLC-97TM1; first compound 0.08 µM) was 0.169 and the relative viability (LCLC-97TM1; first compound 0.253 µM) was 0.198. The relative viability (LCLC-97TM1; first compound 0.8 µM) was 0.165, the relative viability (LCLC-97TM1; first compound 2.53 µM) was 0.18 and the relative viability (LK-2; first compound 0.08 µM) was 0.565. It also gave a relative viability (LK-2; first compound 0.253 µM) of 0.505, a relative viability (LK-2; first compound 0.8 µM) of 0.643 and a relative viability (LK-2; first compound 2.53 µM) of 0.607. The relative viability (LU99A; first compound 0.08 µM) was 0.336, the relative viability (LU99A; first compound 0.253 µM) was 0.279 and the relative viability (LU99A; first compound 0.8 µM) was 0.305. The relative viability (LU99A; first compound 2.53 µM) was 0.293, the relative viability (LXF-289; first compound 0.08 µM) was 0.872 and the relative viability (LXF-289; first compound 0.253 µM) was 0.731. For the same compound, the relative viability (LXF-289; first compound 0.8 µM) was 0.764, the relative viability (LXF-289; first compound 2.53 µM) was 0.597 and the relative viability (NCI-H1651; first compound 0.08 µM) was 0.569. For the same compound, the relative viability (NCI-H1651; first compound 0.253 µM) was 0.454, the relative viability (NCI-H1651; first compound 0.8 µM) was 0.53 and the relative viability (NCI-H1651; first compound 2.53 µM) was 0.638. The relative viability (NCI-H1666; first compound 0.08 µM) was 0.378, the relative viability (NCI-H1666; first compound 0.253 µM) was 0.333 and the relative viability (NCI-H1666; first compound 0.8 µM) was 0.279. The relative viability (NCI-H1666; first compound 2.53 µM) was 0.411, the relative viability (NCI-H1944; first compound 0.08 µM) was 0.37 and the relative viability (NCI-H1944; first compound 0.253 µM) was 0.197. It also gave a relative viability (NCI-H1944; first compound 0.8 µM) of 0.348, a relative viability (NCI-H1944; first compound 2.53 µM) of 0.287 and a relative viability (NCI-H2087; first compound 0.08 µM) of 0.976. It also gave a relative viability (NCI-H2087; first compound 0.253 µM) of 0.636, a relative viability (NCI-H2087; first compound 0.8 µM) of 0.897 and a relative viability (NCI-H2087; first compound 2.53 µM) of 0.876. The relative viability (NCI-H322M; first compound 0.08 µM) was 0.572, the relative viability (NCI-H322M; first compound 0.253 µM) was 0.491 and the relative viability (NCI-H322M; first compound 0.8 µM) was 0.541. It also gave a relative viability (NCI-H322M; first compound 2.53 µM) of 0.439, a relative viability (NCI-H358; first compound 0.08 µM) of 0.306 and a relative viability (NCI-H358; first compound 0.253 µM) of 0.232. The relative viability (NCI-H358; first compound 0.8 µM) was 0.336, the relative viability (NCI-H358; first compound 2.53 µM) was 0.277 and the relative viability (NCI-H596; first compound 0.08 µM) was 0.427. For the same compound, the relative viability (NCI-H596; first compound 0.253 µM) was 0.384, the relative viability (NCI-H596; first compound 0.8 µM) was 0.422 and the relative viability (NCI-H596; first compound 2.53 µM) was 0.4. For the same compound, the relative viability (NCI-H650; first compound 0.08 µM) was 0.916, the relative viability (NCI-H650; first compound 0.253 µM) was 1.05 and the relative viability (NCI-H650; first compound 0.8 µM) was 0.881. The relative viability (NCI-H650; first compound 2.53 µM) was 0.74, the relative viability (NCI-H661; first compound 0.08 µM) was 0.477 and the relative viability (NCI-H661; first compound 0.253 µM) was 0.378. For the same compound, the relative viability (NCI-H661; first compound 0.8 µM) was 0.329, the relative viability (NCI-H661; first compound 2.53 µM) was 0.267 and the relative viability (NCI-H838; first compound 0.08 µM) was 0.441. It also gave a relative viability (NCI-H838; first compound 0.253 µM) of 0.374, a relative viability (NCI-H838; first compound 0.8 µM) of 0.343 and a relative viability (NCI-H838; first compound 2.53 µM) of 0.246. It also gave a relative viability (PC-3 [JPC-3]; first compound 0.08 µM) of 0.681, a relative viability (PC-3 [JPC-3]; first compound 0.253 µM) of 0.602 and a relative viability (PC-3 [JPC-3]; first compound 0.8 µM) of 0.663. It also gave a relative viability (PC-3 [JPC-3]; first compound 2.53 µM) of 0.697, a relative viability (SK-MES-1; first compound 0.08 µM) of 0.401 and a relative viability (SK-MES-1; first compound 0.253 µM) of 0.327. For the same compound, the relative viability (SK-MES-1; first compound 0.8 µM) was 0.415, the relative viability (SK-MES-1; first compound 2.53 µM) was 0.32 and the relative viability (UMC-11; first compound 0.08 µM) was 0.733. It also gave a relative viability (UMC-11; first compound 0.8 µM) of 0.752 and a relative viability (UMC-11; first compound 2.53 µM) of 0.712.
